Test results published in the supplement of paper PMC5844555.

What was measured:
Assay in all cases: 3' UTR reporter interaction score (median-centred robust z-score of log2 firefly/Renilla activity); higher = less repression of the 3' UTR reporter
Conditions in all cases: HEK293T; 48 h
MYB = system: MYB
Procedure, shortened: (§1)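 HEK293T cells were seeded at 10,000 per well in 96-well plates and co-transfected with DharmaFECT Duo, using 100 ng of a firefly luc2P reporter carrying the gene's 3' UTR, 20 ng of Renilla pRL-TK control and 2.5 pmol of miRNA mimic. Both luciferase activities were measured 48 h after transfection. The interaction score is the log-transformed firefly/Renilla ratio, converted to a per-plate robust z-score from the median and median absolute deviation and then median-centred per miRNA, with more negative values indicating interaction. Scores were averaged across at least two independent screens.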

HRAS = system: HRAS
Procedure, shortened: as §1

EZH2 = system: EZH2
Procedure, shortened: as §1

FBXW7 = system: FBXW7
Procedure, shortened: as §1

ZEB2 = system: ZEB2
Procedure, shortened: as §1

MYT1L = system: MYT1L
Procedure, shortened: as §1

NOTCH1 = system: NOTCH1
Procedure, shortened: as §1

PHOX2B = system: PHOX2B
Procedure, shortened: as §1

MYCN = system: MYCN
Procedure, shortened: as §1

MYC = system: MYC
Procedure, shortened: as §1

PHF6 = system: PHF6
Procedure, shortened: as §1

BRCA2 = system: BRCA2
Procedure, shortened: as §1

TP53 = system: TP53
Procedure, shortened: as §1

RB1 = system: RB1
Procedure, shortened: as §1

Row | Sequence | 3' UTR reporter interaction score (MYB) | 3' UTR reporter interaction score (HRAS) | 3' UTR reporter interaction score (EZH2) | 3' UTR reporter interaction score (FBXW7) | 3' UTR reporter interaction score (ZEB2) | 3' UTR reporter interaction score (MYT1L) | 3' UTR reporter interaction score (NOTCH1) | 3' UTR reporter interaction score (PHOX2B) | 3' UTR reporter interaction score (MYCN) | 3' UTR reporter interaction score (MYC) | 3' UTR reporter interaction score (PHF6) | 3' UTR reporter interaction score (BRCA2) | 3' UTR reporter interaction score (TP53) | 3' UTR reporter interaction score (RB1)
1 | ACAGUCUGCUGAGGUUGGAGC | -0.0786 | -0.732 | 0.0759 | -0.12 | 1.65 | -0.4 | 0.0668 | 0.189 | 0.116 | -0.486 | 0.259 | 0.137 | -0.638 | -1.36
2 | ACAUAGAGGAAAUUCCACGUUU | -0.866 | -0.449 | 0.213 | -1.56 | -1.25 | -0.235 | 0.306 | -1.91 | 0.704 | -0.782 | 1.27 | 1.12 | 1.11 | 0.821
3 | ACCAUCGACCGUUGAUUGUACC | 0.0907 | -0.526 | 0.789 | -0.0205 | 0.294 | -2.64 | -0.491 | 0.0128 | 0.598 | -0.128 | 1.81 | 0.723 | 0.659 | -0.388
4 | ACCCUAUCAAUAUUGUCUCUGC | 0.329 | -0.283 | -0.658 | 0.326 | 0.936 | -0.388 | -0.0515 | -0.0439 | 0.109 | 0.123 | 0.779 | -0.211 | -0.169 | -0.979
5 | ACUAGACUGAAGCUCCUUGAGG | 0.78 | 0.196 | 0.526 | -1.12 | -0.765 | 0.327 | -0.733 | -2.05 | 0.903 | 0.201 | -0.216 | 0.363 | 0.442 | 1.2
6 | ACUCAAAACCCUUCAGUGACUU | -1.17 | -0.68 | 0.495 | 0.994 | 0.456 | -0.111 | 0.701 | -0.184 | -0.913 | -0.294 | 1.5 | 0.794 | 1.13 | -0.026
7 | ACUCAAAAUGGGGGCGCUUUCC | -0.497 | 0.68 | 0.137 | -0.231 | 0.347 | 0.0549 | -0.52 | 0.0383 | -0.623 | 0.445 | 2.12 | -0.27 | -0.765 | 0.824
8 | ACUCCAGCCCCACAGCCUCAGC | 0.784 | 0.232 | -0.117 | -1.03 | -0.519 | -0.581 | -0.369 | 1.37 | 0.185 | -0.755 | -1.69 | -0.443 | -0.602 | 0.647
9 | ACUCCAUUUGUUUUGAUGAUGGA | -0.2 | -0.269 | -0.0207 | -0.453 | 0.912 | -0.15 | -0.518 | 0.953 | 0.165 | -0.0596 | 0.594 | -0.329 | 0.239 | -0.0878
10 | ACUGCAGUGAAGGCACUUGU | 0.157 | 0.389 | -0.638 | -0.112 | -0.791 | -0.459 | 0.45 | -0.6 | 0.762 | 0.291 | -0.789 | 0.0527 | -0.642 | -0.0483
